Measured values from patent US9119805B2, “Therapy and prevention of problem drinking” (THE UNIVERSITY OF SYDNEY, priority 2009, dated 2015).
“Also recorded” adds a separate entry of the source.

Columns and labels:
Format in all cases: in vivo, rat
[1] = tested on: Male Wistar rats; assay: Emergence test of anxiety after oxytocin pre-treatment (Example 3)
Method: (§1) Male Wistar rats (n=48) were obtained from the Animal Resource Centre (ARC), Perth, Western Australia, Australia. The animals were of early adolescent age (i.e., 21 days-old) on arrival and were young adults (i.e., 33 days-old) when oxytocin therapy commenced. The animals were housed and maintained as described in the preceding examples, except that animals were moved to individual housing during chronic exposure to alcohol.
(§2) One-half of the rats (n=24) were administered 10 injections of 1 mg/kg oxytocin (1×I/P injection per day for a total of 10 days). The other half of the rats (n=24) received equivalent injections of placebo/vehicle lacking oxytocin.
(§3) At 7 days following final injection of oxytocin, all rats were tested in an emergence test of anxiety. This 5 min test measures the willingness of rats to leave a small dark hide box and emerge into a brightly lit open field. Rats normally avoid brightly lit and open spaces. Three days later, the animals were tested in social interaction tests which measure the willingness of rats to engage in social behavior during a 10 min session in a darkened arena where they meet an unknown rat that has received the same drug treatment.

[2] = tested on: Male Wistar rats; assay: Social interaction test after oxytocin pre-treatment (Example 3)
Method: as §1, §2, §3

[3] = tested on: Male Wistar rats; assay: Home-cage free access to 4.5% ethanol beer after oxytocin prophylaxis (Example 3, FIGS. 5-7)
Method: as §1, §2
A subset of the treated rats (n=8 per condition) were exposed to alcohol in the lickometer apparatus over a 10 day period. On the first day of testing, animals were exposed to a 70 min session in the lickometer during which a low-alcohol near-beer was provided at both lick tubes (Birell's Premium, containing 0.5% alcohol). On subsequent days, animals were exposed to further 70 min test sessions during which near-beer supplemented with increasing amounts of absolute ethanol were provided at both lick tubes i.e., to produce a beer comprising 1.5%, 2.5%, 3.5% and finally 4.5% ethanol. The concentration of ethanol was then maintained at 4.5% for all subsequent testing.
After 9 days of lickometer testing, the rats were given free access to 4.5% ethanol containing beer for a 24-day period in their home cages. Standard rat chow and tap water were also available in the home cages. Alcohol intakes and body weights were measured daily.

[4] = tested on: rats having established patterns of pathologically-high alcohol consumption; assay: Beer and water consumption in the 2.5 hr after a single oxytocin injection in alcohol-dependent animals (Example 4, FIG. 8); settings: 2.5 hr following 1 mg/kg IP
Method: FIG. 8 provides graphical representations showing total consumption (ml) of full strength beer (panel A) and water (panel B) in rats having established patterns of pathologically-high alcohol consumption over several months, in a 2.5 hr period following intraperitoneal (IP) injection with 1 mg/kg oxytocin (OXY, n=8) or saline vehicle (VEH, n=8). […] Alcohol consumption in animals treated with oxytocin was reduced in the short-term by about 25% to about 40% or about 50% or about 60%. In contrast, consumption of water was unchanged in animals receiving oxytocin or saline vehicle placebo.
Alcohol-dependent animals were provided a single injection i/p of oxytocin (1 mg/kg body weight) and their alcohol consumption levels in the 2.5 hr period following therapy were determined.

[5] = 10 x 1 mg/kg I/P, tested 7 days after final injection, versus vehicle
[6] = 10 minute social interaction test, versus vehicle
[7] = FIG. 6 panel A, start of exposure

In the case of `CC[C@H](C)[C@@H]1NC(=O)[C@H](Cc2ccc(O)cc2)NC(=O)[C@@H](N)CSSC[C@@H](C(=O)N2CCC[C@H]2C(=O)N[C@@H](CC(C)C)C(=O)NCC(N)=O)NC(=O)[C@H](CC(N)=O)NC(=O)[C@H](CCC(N)=O)NC1=O` [oxytocin], the “emergence from hide into brightly-lit open field” value [1, 5] is reported as “greater likelihood of emergence into the open field; also recorded: emerged more rapidly”, the time hiding [1, 5] is reported as “reduced time hiding; also recorded: significantly less time hiding” and the anxiety ([1]; relative to control rats) is reported as “reduced anxiety”. For the same compound, the “number of social contacts” value [2, 6] was “significantly higher numbers of social contacts; also recorded: increased numbers of social contacts”, the “proximal time (time within one and half body lengths of another rat)” value [2, 6] was “significantly higher; also recorded: increased time spent in close proximity” and the social anxiety ([2]; test animals after oxytocin therapy) was “decreased social anxiety”. For the same compound, the “average daily intake of full strength beer” value ([3]; FIG. 5, final oxytocin injection about 30 days before exposure to alcohol, versus placebo) was “significantly reduced alcohol consumption; also recorded: consistently less alcohol intake”, the consumption of water ([3]; FIG. 6, same period) was “did not significantly modify consumption of water; also recorded: unchanged” and the “escalation of alcohol consumption / alcohol intake” value ([3]; FIG. 6, 10 daily IP injections ending about 21 days before 24 days beer exposure, versus saline vehicle) was “significantly reduced an escalation of alcohol consumption; also recorded: consistently less alcohol intake”. The “ethanol consumption after marginal increase” value ([3]; FIG. 6 panel A, over 24 days) was 10-10.8 g/kg of pure ethanol per day, the initial beer consumption [3, 7] was “about 110 ml of beer per day” and the initial ethanol consumption [3, 7] was “about 9 g/kg of pure ethanol per day”. For the same compound, the “reduction of initial alcohol consumption” value ([3]; FIG. 6 panel A, versus animals without oxytocin) was “about 10%”, the “total consumption of full strength beer” value ([3]; FIG. 7 panel A, final week of the experiment, versus saline vehicle) was “significantly reduced later consumption of alcohol” and the total water consumption ([3]; FIG. 7 panel B, final week) was “no significant difference in total water consumption”. The “alcohol consumed with free access to full strength beer in home cages” value ([3]; FIGS. 5-7, versus placebo) was “consumed consistently less alcohol”, the “body weight and food intake” value ([3]; oxytocin pre-treated rats versus controls, FIG. 5 experiment) was “same body weight and food intake as controls” and the general health ([3]; oxytocin pre-treated rats, FIG. 5 experiment) was “appeared healthy”. The consumption of water [4] was “unchanged; also recorded: not affected” and the “beer (alcohol) consumption” value ([4]; versus saline vehicle) was “significantly reduced beer consumption”.
